# Source: patent US12551500B2, “C6′-substituted locked nucleic acid-modified cap analog and use thereof” (Hangzhou Tianlong Pharmaceutical Co., Ltd., priority 2024, dated 2026)
# What was measured:
# T7 RNA polymerase [1] = target: T1, T7 RNA polymerase (Escherichia phage T7, UniProt P00573); test: Capping rate of in vitro transcribed mRNA by LC-MS; assay type: biochemical; conditions: for capping rate higher than that of compound 14: difference to compound 14
# Method: (§1) YK-CAP-001 to 006 and compound 14 in Table 1 were respectively used as cap analogs.
# (§2) During the experiment, the volume of materials required for the system was first calculated, and then sample addition was conducted. The system was first added with sterile enzyme-free water, followed by the sequential addition of 10× buffer, NTPs, and cap analogs, mixed well, and gently centrifuged. Nuclease inhibitors, inorganic pyrophosphatase, T7 RNA polymerase, and linearized DNA templates were then added thereto. The system was mixed well, gently centrifuged, and incubated at 37° C. After 2 hours of incubation, the system was added with 1 U of DNase I and incubated at 37° C. for another 30 minutes. The mRNA precipitate was then washed with 75% ethanol, and after the ethanol was briefly evaporated to dryness, the mRNA was redissolved in sterile enzyme-free water.
# (4) The obtained mRNA was subjected to an annealing reaction with a probe.
# The annealing reaction was performed in a PCR instrument: 95° C. for 5 minutes; 65° C. for 2 minutes; 55° C. for 2 minutes; 40° C. for 2 minutes; 22° C. for 2 minutes.
# (5) Magnetic bead pretreatment and probe binding: 100 μL of magnetic beads was placed on a magnetic frame for pretreatment. The magnetic bead solution was added with 120 μL of sample and incubated at room temperature for 30 minutes with slow mixing.
# (6) mRNA splicing and obtaining the 5′ single-strand sequence bound to the probe
# The mixture was added with 20 μL of RNase H (5 U/μL) and incubated at 37° C. for 3 hours with mixing every half hour. After incubation, the magnetic beads were washed and then added with 100 μL of 75% methanol heated to 80° C. The mixture was heated to 80° C. on a heating plate, held for 3 minutes, then placed on a magnetic frame to aspirate the supernatant, and dried at room temperature for 45 minutes to a volume of 10 μL using a centrifugal evaporator. The sample was then resuspended in 50 μL of 100 μM EDTA/1% MeOH and ready for LC-MS analysis to determine the capping of RNA in the transcription reaction. Since there is a significant difference in molecular weight between capped and uncapped bases, the capping rate of mRNA transcription initiated by different cap analogs can be determined based on the difference in molecular mass.
# HEK293T cells = test: Translation efficiency of capped luciferase mRNAs; assay type: cell-based; conditions: for relative fluorescence intensity, times that of HN3002: ratio to HN3002; for relative fluorescence intensity, times that of N-7413: ratio to N-7413; for relative fluorescence intensity, times that of YK-CAP-001: ratio to YK-CAP-001; for relative fluorescence intensity, times that of YK-CAP-002: ratio to YK-CAP-002; for relative fluorescence intensity, times that of m6A: ratio to m6A
# Method: (1) HEK293T cells were cultured in DMEM medium containing 10% FBS and penicillin/streptomycin at 37° C. with 5% CO2.
# (2) Cells in the culture dish were digested and counted, then spread in a 96-well plate at 10,000 cells per well, and cultured overnight until the cells adhered to the wall.
# (3) When the cell density reached approximately 80%, transfection was performed by adding 0.5 μg of mRNA sample and Lipofectamine MessengerMAX Transfection Reagent (Invitrogen) per well according to the manufacturer's instructions.
# (4) After the transfected cells were cultured at 37° C. with 5% CO2 for 24 hours, the growth medium was removed from the cells to be tested, and the cells were rinsed with PBS. After centrifugation to remove PBS, 50 μL of 1× lysis buffer was added. The cells and all liquid were transferred to a microcentrifuge tube and centrifuged.
# (5) 20 μL of sample was taken and added to 100 μL of Dual-Lumi™ II Luciferase Assay Reagent pre-equilibrated to room temperature, and mixed appropriately.
# (6) The mixture was incubated at room temperature (approximately 25° C.) for 5 minutes to stabilize the luminescence signal. Chemiluminescence was detected using a multifunctional microplate reader with a function for detecting chemiluminescence, and the data were recorded.
# T7 RNA polymerase [2] = target: T1, T7 RNA polymerase; test: In vitro transcription yield of mRNA with cap analog (co-transcriptional capping); assay type: biochemical; conditions: for Yield per unit template: in vitro transcription, 1 μg DNA template, 20 μL system, 37° C. 2 hours; for transcription yield higher than that of compound 14: relative to compound 14
# Method: (1) Capping synthesis using cap analogs
# The plasmid was first linearized with plasmid linearizing enzyme, and then the linearized plasmid was purified.
# (2) In vitro transcription and synthesis of mRNA
# as §1, §2
# (3) The transcription product was purified, and the in vitro transcription yield of mRNA was recorded.
# T1 sequence (P00573 whole entry): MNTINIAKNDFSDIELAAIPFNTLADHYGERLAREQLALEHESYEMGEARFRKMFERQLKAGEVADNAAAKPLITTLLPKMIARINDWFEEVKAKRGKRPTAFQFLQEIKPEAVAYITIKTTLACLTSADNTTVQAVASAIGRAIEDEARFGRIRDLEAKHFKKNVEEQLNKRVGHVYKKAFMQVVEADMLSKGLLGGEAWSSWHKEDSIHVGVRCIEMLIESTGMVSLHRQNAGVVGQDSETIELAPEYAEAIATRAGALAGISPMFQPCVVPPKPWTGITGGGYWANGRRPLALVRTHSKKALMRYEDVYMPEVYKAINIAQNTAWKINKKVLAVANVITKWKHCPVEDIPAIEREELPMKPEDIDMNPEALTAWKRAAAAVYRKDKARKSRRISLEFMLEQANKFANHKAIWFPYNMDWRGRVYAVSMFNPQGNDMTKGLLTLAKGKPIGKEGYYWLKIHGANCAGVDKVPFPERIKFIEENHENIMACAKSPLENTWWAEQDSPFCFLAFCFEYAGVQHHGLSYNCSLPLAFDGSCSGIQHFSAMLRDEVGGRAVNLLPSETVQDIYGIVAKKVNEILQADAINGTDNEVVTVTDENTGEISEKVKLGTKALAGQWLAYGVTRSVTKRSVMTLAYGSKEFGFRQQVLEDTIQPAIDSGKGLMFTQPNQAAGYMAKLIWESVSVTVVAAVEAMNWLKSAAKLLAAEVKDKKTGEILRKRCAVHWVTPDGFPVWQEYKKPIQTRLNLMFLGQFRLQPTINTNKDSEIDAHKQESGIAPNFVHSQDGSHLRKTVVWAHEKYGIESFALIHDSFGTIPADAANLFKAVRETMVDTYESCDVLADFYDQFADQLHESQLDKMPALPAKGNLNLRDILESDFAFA
Compound,capping rate higher than that of compound 14 (T7 RNA polymerase [1]) [%],"relative fluorescence intensity, times that of HN3002 (HEK293T cells) [times]","relative fluorescence intensity, times that of N-7413 (HEK293T cells) [times]","relative fluorescence intensity, times that of YK-CAP-001 (HEK293T cells) [times]","relative fluorescence intensity, times that of YK-CAP-002 (HEK293T cells) [times]","relative fluorescence intensity, times that of m6A (HEK293T cells) [times]",Yield per unit template (T7 RNA polymerase [2]) [µg],transcription yield higher than that of compound 14 (T7 RNA polymerase [2]) [%],capping rate higher than that of YK-CAP-001 (T7 RNA polymerase [1]; difference to YK-CAP-001) [%],capping rate higher than that of YK-CAP-002 (T7 RNA polymerase [1]; difference to YK-CAP-002) [%],"Capping rate (T7 RNA polymerase [1]; mRNA transcribed with the cap analog, LC-MS) [%]",transcription yield higher than that of YK-CAP-001 (T7 RNA polymerase [2]; relative to YK-CAP-001) [%],transcription yield higher than that of YK-CAP-002 (T7 RNA polymerase [2]; relative to YK-CAP-002) [%]
COC1C(OP(=O)([O-])OC[C@H]2O[C@@H](n3cnc4c(=O)[nH]c(N)nc43)C(O)C2O)[C@@H](COP(=O)(O)OP(=O)(O)OP(=O)(O)OC[C@]23O[C@@H]([n+]4cn(C)c5c(=O)[nH]c(N)nc54)C(O[C@H]2CC(=O)N(C)C)C3O)O[C@H]1n1cnc2c(N)ncnc21 (stereo partly shown) [YK-CAP-003],17.3,1.1,1.2,1.6,1.8,3.5,151.0,24.9,,,,,
COC1C(OP(=O)([O-])OC[C@H]2O[C@@H](n3cnc4c(=O)[nH]c(N)nc43)C(O)C2O)[C@@H](COP(=O)(O)OP(=O)(O)OP(=O)(O)OC[C@]23O[C@@H]([n+]4cn(C)c5c(=O)[nH]c(N)nc54)C(O[C@H]2CC(F)F)C3O)O[C@H]1n1cnc2c(N)ncnc21 (stereo partly shown) [YK-CAP-004],18.8,1.2,1.4,1.8,2.0,4.0,163.2,35.0,23.2,26.1,96.3,82.8,58.3
COC1C(OP(=O)([O-])OC[C@H]2O[C@@H](n3cnc4c(=O)[nH]c(N)nc43)C(O)C2O)[C@@H](COP(=O)(O)OP(=O)(O)OP(=O)(O)OC[C@]23O[C@@H]([n+]4cn(C)c5c(=O)[nH]c(N)nc54)C(O[C@H]2CCS(C)(=O)=O)C3O)O[C@H]1n1cnc2c(N)ncnc21 (stereo partly shown) [YK-CAP-005],17.7,1.1,1.3,1.6,1.9,3.7,152.6,26.2,,,,,
COC1C(OP(=O)([O-])OC[C@H]2O[C@@H](n3cnc4c(=O)[nH]c(N)nc43)C(O)C2O)[C@@H](COP(=O)(O)OP(=O)(O)OP(=O)(O)OC[C@]23O[C@@H]([n+]4cn(C)c5c(=O)[nH]c(N)nc54)C(O[C@H]2CCS(=O)(=O)N(C)C)C3O)O[C@H]1n1cnc2c(N)ncnc21 (stereo partly shown) [YK-CAP-006],17.6,1.2,1.3,1.7,1.9,3.7,153.1,26.6,,,,,
